# Data: ChEMBL document CHEMBL3414538, “Synthesis, biological evaluation and molecular modeling studies of the PPARβ/δ antagonist CC618” (Eur J Med Chem, 2015)
# Calls of active or inactive are those of the source. No cut-off for these calls is given here.
# Experiments:
# [1] = molecular target: T1, Peroxisome proliferator-activated receptor delta (Homo sapiens, UniProt Q03181); assay: Antagonist activity against pSG5-Gal4-tagged human PPAR-beta/delta ligand binding domain expressed in COS1 cells assessed as inhibition of GW501516-induced receptor activation incubated for 19 hrs by pGL3-5XUAS-SV40 luciferase reporter gene assay; format: cell-based, COS-1
# T1 sequence (Q03181 whole entry): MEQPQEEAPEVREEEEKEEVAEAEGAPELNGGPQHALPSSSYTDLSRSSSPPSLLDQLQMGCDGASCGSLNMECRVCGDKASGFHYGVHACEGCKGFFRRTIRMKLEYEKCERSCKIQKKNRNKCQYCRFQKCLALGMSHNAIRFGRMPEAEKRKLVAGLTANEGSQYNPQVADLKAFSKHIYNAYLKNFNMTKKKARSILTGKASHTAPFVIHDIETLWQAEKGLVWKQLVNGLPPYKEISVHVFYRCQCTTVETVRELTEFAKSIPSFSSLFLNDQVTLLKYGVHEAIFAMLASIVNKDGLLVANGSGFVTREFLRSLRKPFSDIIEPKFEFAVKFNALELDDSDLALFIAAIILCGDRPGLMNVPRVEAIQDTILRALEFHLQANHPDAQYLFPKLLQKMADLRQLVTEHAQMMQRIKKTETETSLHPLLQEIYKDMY
# [2] = molecular target: T1, Peroxisome proliferator-activated receptor delta; assay: Agonist activity at pSG5-Gal4-tagged human PPAR-beta/delta ligand binding domain expressed in COS1 cells assessed as receptor activation incubated for 19 hrs by pGL3-5XUAS-SV40 luciferase reporter gene assay; format: cell-based; conditions: cos-1
# [3] = molecular target: T2, Peroxisome proliferator-activated receptor gamma (Homo sapiens) (UniProt P37231); assay: Antagonist activity against pSG5-Gal4-tagged human PPAR-gamma ligand binding domain expressed in COS1 cells assessed as inhibition of rosiglitazone-induced receptor activation at 20 nM to 20000 nM incubated for 19 hrs by pGL3-5XUAS-SV40 luciferase reporter gene assay; format: cell-based; conditions: COS-1
# T2 sequence (whole entry): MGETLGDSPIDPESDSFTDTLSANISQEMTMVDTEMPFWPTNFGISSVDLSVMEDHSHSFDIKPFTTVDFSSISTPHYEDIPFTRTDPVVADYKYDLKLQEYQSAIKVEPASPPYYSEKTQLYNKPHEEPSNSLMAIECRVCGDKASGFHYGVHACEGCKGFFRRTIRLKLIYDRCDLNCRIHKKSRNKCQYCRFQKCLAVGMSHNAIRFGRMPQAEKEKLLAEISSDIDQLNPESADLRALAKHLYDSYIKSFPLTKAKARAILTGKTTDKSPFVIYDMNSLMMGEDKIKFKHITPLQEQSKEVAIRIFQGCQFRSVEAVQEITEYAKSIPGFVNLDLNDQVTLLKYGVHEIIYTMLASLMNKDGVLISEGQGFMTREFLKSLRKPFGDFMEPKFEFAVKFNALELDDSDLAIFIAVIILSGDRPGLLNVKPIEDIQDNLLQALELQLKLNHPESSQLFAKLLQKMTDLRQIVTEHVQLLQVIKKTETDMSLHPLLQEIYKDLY
# [4] = molecular target: T3, Peroxisome proliferator-activated receptor alpha (Homo sapiens) (UniProt Q07869); assay: Antagonist activity against pSG5-Gal4-tagged human PPAR-alpha ligand binding domain expressed in COS1 cells assessed as inhibition of bezafibrate-induced receptor activation at 1 nM to 100000 nM incubated for 19 hrs by pGL3-5XUAS-SV40 luciferase reporter gene assay; format: cell-based; conditions: COS-1
# T3 sequence (whole entry): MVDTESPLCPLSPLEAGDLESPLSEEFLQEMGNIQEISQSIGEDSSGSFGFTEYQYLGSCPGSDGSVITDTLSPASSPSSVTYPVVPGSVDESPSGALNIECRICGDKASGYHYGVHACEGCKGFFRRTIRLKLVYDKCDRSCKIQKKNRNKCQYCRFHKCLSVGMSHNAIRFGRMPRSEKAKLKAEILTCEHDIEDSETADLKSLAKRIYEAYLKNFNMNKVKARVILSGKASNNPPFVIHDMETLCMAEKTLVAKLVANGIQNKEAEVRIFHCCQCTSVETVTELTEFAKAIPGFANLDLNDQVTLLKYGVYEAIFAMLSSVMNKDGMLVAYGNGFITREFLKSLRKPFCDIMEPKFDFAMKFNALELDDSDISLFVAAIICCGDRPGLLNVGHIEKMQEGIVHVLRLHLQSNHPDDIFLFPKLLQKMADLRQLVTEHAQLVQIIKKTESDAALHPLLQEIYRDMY
Compound,IC50 ([1]; read-out: IC50) [µM],EC50 [2],IC50 ([1]; cos-1),inhibition [3],inhibition [4]
O=C(NCCS(=O)(=O)c1ccc(C(F)(F)F)cn1)c1ccc(Cl)cc1,5,Not Active,,,
Cc1nc(-c2ccc(C(F)(F)F)cc2)sc1C(=O)NCCS(=O)(=O)c1ccccn1,,,Not Active,,
Cc1nc(-c2ccc(C(F)(F)F)cc2)sc1C(=O)NCCS(=O)(=O)c1ccc(C(F)(F)F)cn1,10,Not Active,,inactive,inactive
